Positions count from the first letter of the chain named. Like-named read-outs stand apart in the source and are kept apart here. Blank lines part the entries; values can stand above or below the compound they belong to.
Experiments:
MEC-4d = molecular target: T1, MEC-4d (Caenorhabditis elegans, UniProt P24612, A713T); assay: Two-electrode voltage clamp of oocytes coexpressing MEC-2 and MEC-4d; type: cell-based, C. elegans; settings: for effect on MEC-4d current: 30 µM
T1 sequence (P24612 1-768 A713T): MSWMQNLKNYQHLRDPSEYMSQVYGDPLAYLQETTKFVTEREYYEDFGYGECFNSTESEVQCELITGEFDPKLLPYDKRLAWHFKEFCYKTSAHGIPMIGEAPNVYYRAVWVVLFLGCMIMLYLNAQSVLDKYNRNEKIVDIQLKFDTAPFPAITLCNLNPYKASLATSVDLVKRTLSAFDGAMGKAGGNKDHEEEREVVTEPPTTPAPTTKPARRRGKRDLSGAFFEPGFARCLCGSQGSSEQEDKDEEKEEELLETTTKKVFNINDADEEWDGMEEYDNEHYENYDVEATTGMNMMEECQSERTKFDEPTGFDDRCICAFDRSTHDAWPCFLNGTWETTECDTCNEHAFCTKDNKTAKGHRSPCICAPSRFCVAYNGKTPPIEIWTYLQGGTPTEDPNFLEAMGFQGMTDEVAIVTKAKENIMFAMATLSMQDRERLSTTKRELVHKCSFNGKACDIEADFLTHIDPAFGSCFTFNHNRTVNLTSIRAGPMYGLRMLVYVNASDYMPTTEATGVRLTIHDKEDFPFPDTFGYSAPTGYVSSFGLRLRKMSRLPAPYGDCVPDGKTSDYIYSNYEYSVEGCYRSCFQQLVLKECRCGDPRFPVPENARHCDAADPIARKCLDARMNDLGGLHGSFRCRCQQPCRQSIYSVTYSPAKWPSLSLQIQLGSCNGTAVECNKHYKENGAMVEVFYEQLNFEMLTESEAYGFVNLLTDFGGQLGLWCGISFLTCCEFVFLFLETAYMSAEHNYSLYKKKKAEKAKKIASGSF

DEGT-1d = assay: Two-electrode voltage clamp of oocytes coexpressing MEC-2 and DEGT-1d; type: cell-based, C. elegans; settings: for ΔIdrug, change in current compared with uninjected oocytes: −85 mV, coexpressed with MEC-2; for effect on DEGT-1d current: 30 µM
UNC-8d [1] = molecular target: T2, UNC-8d (Caenorhabditis elegans, UniProt Q21974, G387E); assay: Two-electrode voltage clamp of oocytes coexpressing MEC-2 and UNC-8d; type: cell-based, C. elegans; settings: for effect on UNC-8d current: 30 µM; for IC50: control saline (divalent-containing solution)
T2 sequence (Q21974 1-737 isoform Q21974-4 G347E): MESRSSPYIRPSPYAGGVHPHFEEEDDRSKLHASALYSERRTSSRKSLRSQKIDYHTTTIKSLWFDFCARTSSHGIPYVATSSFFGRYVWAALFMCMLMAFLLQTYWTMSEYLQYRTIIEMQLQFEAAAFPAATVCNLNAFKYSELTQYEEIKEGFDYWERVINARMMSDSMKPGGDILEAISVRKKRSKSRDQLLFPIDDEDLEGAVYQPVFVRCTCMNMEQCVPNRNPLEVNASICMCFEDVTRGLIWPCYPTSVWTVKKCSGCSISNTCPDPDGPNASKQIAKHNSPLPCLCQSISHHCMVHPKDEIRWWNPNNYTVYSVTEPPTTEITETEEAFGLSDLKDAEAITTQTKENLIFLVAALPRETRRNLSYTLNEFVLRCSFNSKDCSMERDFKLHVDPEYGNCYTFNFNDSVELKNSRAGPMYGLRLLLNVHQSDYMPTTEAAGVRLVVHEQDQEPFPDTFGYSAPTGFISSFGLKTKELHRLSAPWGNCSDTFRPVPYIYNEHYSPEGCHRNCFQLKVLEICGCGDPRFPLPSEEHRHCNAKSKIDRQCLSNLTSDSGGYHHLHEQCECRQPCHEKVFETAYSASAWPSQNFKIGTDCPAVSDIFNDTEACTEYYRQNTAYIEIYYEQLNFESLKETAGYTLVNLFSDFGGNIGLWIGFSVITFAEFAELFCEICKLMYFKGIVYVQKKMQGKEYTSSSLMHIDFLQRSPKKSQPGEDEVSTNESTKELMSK

MEC-2 alone = molecular target: T3, MEC-2 alone (Caenorhabditis elegans, UniProt Q27433); assay: Two-electrode voltage clamp of oocytes expressing MEC-2 alone; type: cell-based, C. elegans; settings: 300 µM amiloride, −85 mV
T3 sequence (Q27433 1-481): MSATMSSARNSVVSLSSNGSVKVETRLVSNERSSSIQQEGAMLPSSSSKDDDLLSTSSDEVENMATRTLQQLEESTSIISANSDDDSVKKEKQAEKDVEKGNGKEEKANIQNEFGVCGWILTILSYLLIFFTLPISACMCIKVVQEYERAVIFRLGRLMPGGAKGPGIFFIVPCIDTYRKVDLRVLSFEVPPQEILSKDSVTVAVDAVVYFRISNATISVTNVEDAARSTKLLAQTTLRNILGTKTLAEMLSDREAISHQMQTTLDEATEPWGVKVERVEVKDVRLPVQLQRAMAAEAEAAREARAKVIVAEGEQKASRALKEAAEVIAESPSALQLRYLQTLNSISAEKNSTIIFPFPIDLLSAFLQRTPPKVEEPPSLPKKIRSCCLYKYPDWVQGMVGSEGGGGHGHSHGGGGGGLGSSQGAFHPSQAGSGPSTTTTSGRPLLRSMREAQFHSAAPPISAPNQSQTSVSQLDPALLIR

DEGT-1d alone = assay: Two-electrode voltage clamp of oocytes expressing DEGT-1d alone; type: cell-based, C. elegans; settings: 300 µM amiloride, −85 mV, DEGT-1 alone without MEC-2
MEC-4d(E704K) = molecular target: T4, MEC-4d(E704K) (Caenorhabditis elegans, UniProt P24612, A713T/E704K); assay: cell-based; set-up: species or system C. elegans; settings: for drug-induced change in current (Idrug) compared with absence of drug: 700 µM drug, −85 mV
T4 sequence (P24612 1-768 E704K/A713T): T1 sequence (P24612 1-768 A713T) with E704K

UNC-8d [2] = molecular target: T2, UNC-8d; settings: −100 mV, ref Miller-Fleming et al., 2016, cited from earlier work
uninjected oocytes = assay: Two-electrode voltage clamp of uninjected; type: cell-based, Xenopus laevis; settings: 30 µM
rASIC1a = settings: allosteric effect; ref Lynagh et al., 2017; cited from earlier work

SMILES: N=C(N)NC(=O)c1nc(Cl)c(N)nc1N [Amiloride, amiloride]
- effect on MEC-4d current (MEC-4d): inhibited
- ΔIdrug, change in current compared with uninjected oocytes (DEGT-1d; 100 µM drug): 0.111 µA
- ΔIdrug, change in current compared with uninjected oocytes (DEGT-1d; 300 µM drug): 0.0623 µA
- effect on UNC-8d current (UNC-8d [1]): inhibited
- ΔIdrug, change in current compared with uninjected oocytes (MEC-2 alone): −0.0067 µA
- ΔIdrug, change in current compared with uninjected oocytes (DEGT-1d alone): 0.0288 µA

SMILES: CC(=O)Oc1ccccc1C(=O)O [Aspirin, aspirin]
- EC50 (MEC-4d(E704K)): 179 ± 56 µM
- drug-induced change in current (Idrug) compared with absence of drug (MEC-4d(E704K)): 6.53 µA
- EC50 (MEC-4d): 79.9 ± 3.7 µM
- voltage dependence of potentiation (EC50 vs voltage) (MEC-4d): Neither drug showed evidence of voltage dependence

SMILES: N=C(N)c1ccccc1 [Benzamidine, benzamidine]
- effect on UNC-8d current (UNC-8d [1]): inhibited

SMILES: NC(=NCc1ccccc1)NC(=O)c1nc(Cl)c(N)nc1N [Benzamil, benzamil]
- effect on MEC-4d current (MEC-4d): inhibited
- IC50 (UNC-8d [2]; divalent-containing solution): 47 µM
- IC50 (UNC-8d [2]; divalent-free solution): 119 µM
- effect on UNC-8d current (UNC-8d [1]): inhibited
- IC50 (UNC-8d [1]; IC50, −60 mV): 14.8 ± 1.6 µM
- IC50 (UNC-8d [1]; IC50, −100 mV): 15.1 µM
- voltage dependence of block (UNC-8d [1]; voltages between −100 and −20 mV): not voltage-dependent

SMILES: O=C(O)c1ccccc1O [Salicylic acid, salicylic acid]
- effect on DEGT-1d current (DEGT-1d): partially inhibit

Now from value to compound, other results behind:

- effect on UNC-8d current (UNC-8d [1]): partially inhibit
SMILES: O=C(O)Cc1ccccc1Nc1c(Cl)cccc1Cl [Diclofenac, diclofenac]

- IC50 (MEC-4d): 3.06 ± 0.6 µM
- voltage dependence of apparent affinity (block) (MEC-4d): insensitive to voltage
- effect on MEC-4d current (MEC-4d): inhibited
- effect on UNC-8d current (UNC-8d [1]): inhibited
SMILES: CCN(c1nc(N)c(C(=O)NC(=N)N)nc1Cl)C(C)C [EIPA, 5-(N-ethyl-N-isopropyl)amiloride]
- effect on current in control (uninjected) oocytes (uninjected oocytes): no detectable effect
- effect on DEGT-1d current (DEGT-1d): no detectable effect

- effect on UNC-8d current (UNC-8d [1]): partially inhibit
SMILES: CC(C(=O)O)c1ccc(-c2ccccc2)c(F)c1 (stereo not shown) [Flurbiprofen, flurbiprofen]
- effect on DEGT-1d current (DEGT-1d): partially inhibit

- drug-induced change in current (Idrug) compared with absence of drug (MEC-4d(E704K)): 10.7 µA
- effect on MEC-4d current (MEC-4d): seems to potentiate
- effect on UNC-8d current (UNC-8d [1]): modestly inhibits
SMILES: CC(C)Cc1ccc(C(C)C(=O)O)cc1 (stereo not shown) [Ibuprofen, ibuprofen]
- effect on current in control (uninjected) oocytes (uninjected oocytes): little if any effect
- voltage dependence of potentiation (EC50 vs voltage) (MEC-4d): Neither drug showed evidence of voltage dependence
- effect on DEGT-1d current (DEGT-1d): modestly inhibits
- ΔIdrug, change in current compared with uninjected oocytes (DEGT-1d; 100 µM drug): 0.19 µA
- ΔIdrug, change in current compared with uninjected oocytes (DEGT-1d; 300 µM drug): 0.322 µA
- effect on rASIC1a (rASIC1a): inhibited

- effect on MEC-4d current (MEC-4d): inhibited
- effect on UNC-8d current (UNC-8d [1]): inhibited
SMILES: NC(=Nc1ccccc1)NC(=O)c1nc(Cl)c(N)nc1N [Phenamil, phenamil]

- difference in drug-sensitive current compared with uninjected oocytes (ΔIdrug) (MEC-4d; 30 µM ibuprofen isomer): 4.7 µA
SMILES: CC(C)Cc1ccc([C@H](C)C(=O)O)cc1 [S-Ibu, S-ibuprofen]

Source: paper PMC7933985 (The Journal of General Physiology, 2021)
